Measured values reported in the supplement of paper PMC8253809.

Columns and labels:
[1] = tested on: DIPGX37 (H3.3 K27M diffuse intrinsic pontine glioma line); assay: area under dose-response curve of % growth inhibition (log2 RLU vs DMSO / staurosporine), 1e-11 to 1e-4 M (% x log10 M); higher = more growth inhibition
Procedure, shortened: (§1)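 On 1% Geltrex-coated 384-well plates, patient-derived pHGG/DIPG cell lines and astrocytes were treated in triplicate across 10 threefold dilutions (mean top concentration 35 μM) for 7 days, with iAstro treated for 3 days, at 37 °C, 5% CO2. Log2-transformed CellTiter-Glo luminescence was normalised per plate to % activity between solvent and positive controls. Area under the curve was obtained by the trapezoid rule from a log-logistic fit, or from a smoothing spline when that fit failed.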

[2] = tested on: iAstro (astrocyte control); assay: as above
Procedure, shortened: as §1

[3] = tested on: HGGX42 (H3.3 G34R paediatric high-grade glioma line); assay: as above
Procedure, shortened: as §1

[4] = tested on: SUDIPGXVII (diffuse intrinsic pontine glioma line); assay: as above
Procedure, shortened: as §1

[5] = tested on: HABS (astrocyte control); assay: as above
Procedure, shortened: as §1

[6] = tested on: SUDIPGXIX (diffuse intrinsic pontine glioma line); assay: as above
Procedure, shortened: as §1

[7] = tested on: HGGX2 (paediatric high-grade glioma line); assay: as above
Procedure, shortened: as §1

[8] = tested on: SUDIPGIV (diffuse intrinsic pontine glioma line); assay: as above
Procedure, shortened: as §1

[9] = tested on: DIPGX9 (diffuse intrinsic pontine glioma line); assay: as above
Procedure, shortened: as §1

[10] = tested on: HGGX6 (H3.3 G34R paediatric high-grade glioma line); assay: as above
Procedure, shortened: as §1

[11] = tested on: DIPGX7 (H3.3 K27M diffuse intrinsic pontine glioma line); assay: as above
Procedure, shortened: as §1

[12] = tested on: HGGX39 (paediatric high-grade glioma line); assay: as above
Procedure, shortened: as §1

[13] = tested on: SUDIPGXXI (diffuse intrinsic pontine glioma line); assay: as above
Procedure, shortened: as §1

[14] = tested on: SUDIPGXIII (diffuse intrinsic pontine glioma line); assay: as above
Procedure, shortened: as §1

[15] = tested on: DIPGX37; assay: maximal growth inhibition (yFin) relative to DMSO / staurosporine; higher = more efficacious
Procedure, shortened: (§2)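 Patient-derived pHGG/DIPG cell lines and astrocyte controls were grown on 1% Geltrex-coated 384-well plates and exposed by pin tool to a 10-point threefold dilution series (mean top concentration 35 μM), in triplicate. Exposure was 7 days (iAstro 3 days) at 37 °C, 5% CO2. CellTiter-Glo luminescence was log2-transformed, normalised per plate to % activity between negative (solvent) and positive control wells, and pooled. EC50 and maximal response (yFin) come from the lowest-AICc three- or four-parameter log-logistic fit.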

[16] = tested on: iAstro; assay: as above
Procedure, shortened: as §2

[17] = tested on: HGGX42; assay: as above
Procedure, shortened: as §2

[18] = tested on: SUDIPGXVII; assay: as above
Procedure, shortened: as §2

[19] = tested on: HABS; assay: as above
Procedure, shortened: as §2

[20] = tested on: SUDIPGXIX; assay: as above
Procedure, shortened: as §2

[21] = tested on: HGGX2; assay: as above
Procedure, shortened: as §2

[22] = tested on: SUDIPGVI (diffuse intrinsic pontine glioma line); assay: as above
Procedure, shortened: as §2

[23] = tested on: SUDIPGIV; assay: as above
Procedure, shortened: as §2

[24] = tested on: DIPGX9; assay: as above
Procedure, shortened: as §2

[25] = tested on: HGGX6; assay: as above
Procedure, shortened: as §2

[26] = tested on: DIPGX7; assay: as above
Procedure, shortened: as §2

[27] = tested on: HGGX39; assay: as above
Procedure, shortened: as §2

[28] = tested on: DIPGX29 (H3.3 K27M diffuse intrinsic pontine glioma line); assay: as above
Procedure, shortened: as §2

[29] = tested on: SUDIPGXXI; assay: as above
Procedure, shortened: as §2

[30] = tested on: SUDIPGXIII; assay: as above
Procedure, shortened: as §2

| Compound | area under dose-response curve [1] | area under dose-response curve [2] | area under dose-response curve [3] | area under dose-response curve [4] | area under dose-response curve [5] | area under dose-response curve [6] | area under dose-response curve [7] | area under dose-response curve [8] | area under dose-response curve [9] | area under dose-response curve [10] | area under dose-response curve [11] | area under dose-response curve [12] | area under dose-response curve [13] | area under dose-response curve [14] | maximal growth inhibition [15] [%] | maximal growth inhibition [16] [%] | maximal growth inhibition [17] [%] | maximal growth inhibition [18] [%] | maximal growth inhibition [19] [%] | maximal growth inhibition [20] [%] | maximal growth inhibition [21] [%] | maximal growth inhibition [22] [%] | maximal growth inhibition [23] [%] | maximal growth inhibition [24] [%] | maximal growth inhibition [25] [%] | maximal growth inhibition [26] [%] | maximal growth inhibition [27] [%] | maximal growth inhibition [28] [%] | maximal growth inhibition [29] [%] | maximal growth inhibition [30] [%] |
| --- | --- | --- | --- | --- | --- | --- | --- | --- | --- | --- | --- | --- | --- | --- | --- | --- | --- | --- | --- | --- | --- | --- | --- | --- | --- | --- | --- | --- | --- | --- |
| CC(C)(C)OC(=O)Nc1ccc(-c2cc(C(=O)NCCCCCCC(=O)NO)no2)cc1 [BML-281] | 56.6 | 61.4 | 49 | 63.9 | 83.1 | 87.7 | 92 | 104 | 146 | 55.5 | 111 | 94.4 | 212 | 54.5 | 38.1 | 50 | 33.3 | 58.3 | 74.1 | 85.3 | 64 | 71.8 | 76 | 97.6 | 52.9 | 91.7 | 84 | 55.1 | 104 | 39 |
| Cc1[nH]c2ccccc2c1CCNCc1ccc(/C=C/C(=O)NO)cc1 [PANOBINOSTAT] | 220 | 134 | 282 | 244 | 272 | 293 | 253 | 252 | 287 | 216 | 243 | 212 | 355 | 195 | 76.5 | 48 | 95.5 | 90.9 | 95.2 | 106 | 90 | 86.9 | 86.4 | 90.7 | 73.9 | 89 | 75.6 | 76.5 | 110 | 93.9 |
| CC(C)c1c2cc(-c3ccnc(NC4CCC(NC5CCOCC5)CC4)n3)ccc2nn1C (stereo not given) | 225 | 91.7 | 252 | 263 | 135 | 278 | 198 | 256 | 283 | 210 | 270 | 189 | 319 | 249 | 81.2 | 26.6 | 82 | 89.7 | 44.3 | 91.6 | 75.2 | 84 | 90.4 | 89.5 | 78 | 93.3 | 83.2 | 84.4 | 99.9 | 89.3 |
| O=C(Nc1c[nH]nc1-c1nc2ccc(CN3CCOCC3)cc2[nH]1)NC1CC1 [AT9283] | 132 | 42.3 | 178 | 128 | 173 | 184 | 87.8 | 167 | 203 | 134 | 143 | 186 | 310 | 77.4 | 107 | 27.5 | 104 | 102 | 94 | 112 | 96.7 | 101 | 99.7 | 109 | 97.8 | 110 | 91.6 | 108 | 114 | 97.8 |
| CN1CCCN(C(=O)c2cccc(-c3ccc(/C=C4/C(=O)Nc5ccc(Cl)cc54)o3)c2)CC1 [CX-6258] | 191 | 168 | 184 | 137 | 124 | 162 | 162 | 165 | 167 | 132 | 157 | 139 | 330 | 112 | 109 | 102 | 106 | 110 | 112 | 110 | 108 | 108 | 107 | 108 | 106 | 110 | 110 | 112 | 106 | 104 |
